The source of these data is patent publication US11427869B2, “T cell balance gene expression, compositions of matters and methods of use thereof” (THE BROAD INSTITUTE, INC., priority 2015, dated 2022).

This test concerns Th17 cells. The experiment in a line: Flow cytometry and intracellular cytokine staining of T cells. It counts as cell-based, mouse. In general terms: Flow cytometry measures light scatter and fluorescence of single cells or particles in a stream.

Procedure: WT, CD5L−/− and Rorγt−/− Th17 cells were differentiated with TGF-1+IL-6 for 96h. […] Three independent experiments were performed. […] (FIG. 18E) Naïve WT T cells were activated without polarizing cytokines (Th0) and infected with retrovirus expressing Rorγt in the presence of control-RV or CD5L-RV with or without FF-MAS (5 uM) as a source of Rorγt ligand. Each dot represents an independent infection. (FIG. 18F) WT or CD5L−/− naïve cells were differentiated with TGF-β1+IL-6. At 48h, cells were replated in fresh media with either control or FF-MAS (5 uM) as a source of Rorγt ligand. Cells were harvested for FACS analysis 72h later.
T cell differentiation culture. Naïve CD4+CD44−CD62L+CD25− T cells or Effector memory CD4+CD44+CD62L− were sorted using BD FACSAria sorter and activated with plate-bound anti-CD3 and anti-CD28 antibodies (both at 2 μg/ml) in the presence of cytokines at a concentration of 2.5×10^5 cells/ml. For Th17 differentiation: 2 ng/ml of rhTGFβ1, 2 ng/ml of rhTGFβ3, 25 ng/ml rmIL-6, 20 ng/ml rmIL-18 (all from Miltenyi Biotec) and 20 ng/ml rmIL-23 (R & D systems) were used at various combinations as specified in figures. For Th1 differentiation, 20 ng/ml rmIL-12 (R & D systems); for Th2 differentiation 20 ng/ml rmIL-4 (Miltenyi Biotec); for iTreg differentiation, 2.5 ng/ml of rhTGFβ1 were used (Miltenyi Biotec). For differentiation experiments, cells were harvested at 48 hours. For restimulation experiments, cells were differentiated for 48 hours and resuspended in fresh media with no additional cytokines for 48-72 hours. Cells were re-stimulated with PMA/ionomycin for four hours before analysis for cytokines by intracellular cytokine staining. For experiments with exogenous fatty acid, fatty acids were purchased and resuspended first with serum-free media containing BSA prior being added to culture.
Flow cytometry and intracellular cytokine staining. Sorted naïve T cells were stimulated with phorbol 12-myristate 13-acetate (PMA) (50 ng/ml, Sigma-aldrich), ionomycin (1 μg/ml, Sigma-aldrich) and a protein transport inhibitor containing monensin (Golgistop) (BD Biosciences) for 4 h before detection by staining with antibodies.

Regarding `CC(C)=CCC[C@@H](C)[C@H]1CC=C2C3=C(CC[C@@]21C)[C@@]1(C)CC[C@H](O)C(C)(C)[C@@H]1CC3` [Rorγt ligand, FF-MAS], the IL-17 expression result (Th0 cells with ectopic Rorγt expression and CD5L-RV, FF-MAS 5 uM) is on record as “partially rescued”. Moreover, the IL-17 production entry (non-pathogenic Th17 cells (TGF-β1+IL-6), ligand (FF-MAS 5 uM) added at 48h, FACS 72h later) was “increased IL-17 production”.
